# Laboratory results: the supplement of paper PMC11208160
# Assay: recombinant UMI read abundance after kanamycin selection (control-corrected) (log10(CPM+1)); higher = more efficient recombination; extreme values may be limits of the assay; sequences stand for … in AGTGCAGAGAAAATCGGCCAGTTTTCTCTGCCTGCAGTCCGCATGCCGTGGGACCCCTTGGGTTCTAACCTGTTGCCTAGATTTATGCAGCGGACTGCCTTTCTCCCAAAGTGATAAACCGG…AGGTTGGTTTCACT; site = the 11-nt donor
# Outline: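 In Escherichia coli, a pool of donor and donor-binding-loop pairs, each with a 12-nt UMI, was tested for the IS621 bridge recombinase. Plating was on IPTG (0.07 mM) plus kanamycin, or without selection, in two replicates. Recombinant UMIs were amplified by PCR across the donor–target junction and sequenced, and counts were reported as log10(CPM+1) after averaging and control-derived scaling.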
# 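Note: IS621 bridge recombinase in Escherichia coli cells against a fixed T5 target plasmid.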
row,Sequence,recombinant UMI read abundance (log10)
1,CGTTAGACATGGACCGGTTTTCCCGGTAATCCGTATTTGAA (site CGTTAGACTCT),0.00762
2,CGTTAGACATGGACCGGTTTTCCCGGTAATCCGTATTTGAA (site CGTTAGACTGT),0
3,CGTTAGACATGGACCGGTTTTCCCGGTAATCCGTATTTGAA (site CGTTAGACTTT),1.33
4,CGTTAGGCATGGACCGGTTTTCCCGGTAATCCGTATTTGCT (site CGTTAGGCTAG),0.924
5,CGTTAGGCATGGACCGGTTTTCCCGGTAATCCGTATTTGCT (site CGTTCGGCTAG),0.00474
6,CGTTAGGCATGGACCGGTTTTCCCGGTAATCCGTATTTGCT (site CGTTGGGCTAG),0
7,CGTTAGGCATGGACCGGTTTTCCCGGTAATCCGTATTTGCT (site CGTTTGGCTAG),0.00436
8,CGTTCGGCATGGACCGGTTTTCCCGGTAATCCGTATTTGTC (site CGTTCGGCTGA),0
9,CGTTGCACATGGACCGGTTTTCCCGGTAATCCGTATTTGGG (site CGTTGCACTCC),0.0529
10,CGTTGGACATGGACCGGTTTTCCCGGTAATCCGTATTTGAG (site CGTTAGACTCT),0.878
11,CGTTGGACATGGACCGGTTTTCCCGGTAATCCGTATTTGAG (site CGTTCGACTCT),0.022
12,CGTTGGACATGGACCGGTTTTCCCGGTAATCCGTATTTGAG (site CGTTGGACTCT),1.36
13,CGTTGGACATGGACCGGTTTTCCCGGTAATCCGTATTTGAG (site CGTTTGACTCT),0.0464
14,CGTTGTCCATGGACCGGTTTTCCCGGTAATCCGTATTTGCT (site CGTTGTCCTAG),0.968
15,CGTTGTTCATGGACCGGTTTTCCCGGTAATCCGTATTTGTA (site CGTTGTTCTTA),2.19
16,CGTTTGGCATGGACCGGTTTTCCCGGTAATCCGTATTTGAT (site CGTTTGGCTAA),0.0113
17,CGTTTGGCATGGACCGGTTTTCCCGGTAATCCGTATTTGAT (site CGTTTGGCTAC),0.0714
18,CGTTTGGCATGGACCGGTTTTCCCGGTAATCCGTATTTGAT (site CGTTTGGCTAG),1.09
19,CGTTTGGCATGGACCGGTTTTCCCGGTAATCCGTATTTGAT (site CGTTTGGCTAT),2.22
20,CTAAACTCATGGACCGGTTTTCCCGGTAATCCGTATTTGAA (site CTAAACTCTTT),3.08
21,CTAACCCCATGGACCGGTTTTCCCGGTAATCCGTATTTGTA (site CTAACCCCTTA),1.67
22,CTAACCGCATGGACCGGTTTTCCCGGTAATCCGTATTTGTT (site CTAACCGCTAA),1.6
23,CTAACTTCATGGACCGGTTTTCCCGGTAATCCGTATTTGCA (site CTAACTTCTTG),2.08
24,CTAAGGGCATGGACCGGTTTTCCCGGTAATCCGTATTTGAT (site CTAAGGGCTAT),2.15
25,CTAATATCATGGACCGGTTTTCCCGGTAATCCGTATTTGAC (site CTAATATCTGT),2.69
26,CTAATATCATGGACCGGTTTTCCCGGTAATCCGTATTTGAC (site CTACTATCTGT),0

row,Sequence,recombinant UMI read abundance (log10)
1,CTAATATCATGGACCGGTTTTCCCGGTAATCCGTATTTGAC (site CTAGTATCTGT),2.29
2,CTAATATCATGGACCGGTTTTCCCGGTAATCCGTATTTGAC (site CTATTATCTGT),1.3
3,CTAATATCATGGACCGGTTTTCCCGGTAATCCGTATTTGAG (site CTAATATCTCT),3.07
4,CTAATATCATGGACCGGTTTTCCCGGTAATCCGTATTTGAG (site CTAGTATCTGT),0
5,CTAATGACATGGACCGGTTTTCCCGGTAATCCGTATTTGAT (site CTAATGACTAT),1.69
6,CTAATGACATGGACCGGTTTTCCCGGTAATCCGTATTTGCA (site CTAATGACTTG),2.01
7,CTACCAACATGGACCGGTTTTCCCGGTAATCCGTATTTGGA (site CTACAAACTTC),0
8,CTACCAACATGGACCGGTTTTCCCGGTAATCCGTATTTGGA (site CTACCAACTTC),0.959
9,CTACCAACATGGACCGGTTTTCCCGGTAATCCGTATTTGGA (site CTACGAACTTC),0
10,CTACCAACATGGACCGGTTTTCCCGGTAATCCGTATTTGGA (site CTACTAACTTC),0.0192
11,CTACCATCATGGACCGGTTTTCCCGGTAATCCGTATTTGCT (site CGATCATCTAG),0
12,CTACCATCATGGACCGGTTTTCCCGGTAATCCGTATTTGCT (site CTACCATCTAG),2.35
13,CTACCCGCATGGACCGGTTTTCCCGGTAATCCGTATTTGCT (site CTACCCGCTAG),1.43
14,CTACGCACATGGACCGGTTTTCCCGGTAATCCGTATTTGAG (site CTACGCACTCT),1.29
15,CTACGCTCATGGACCGGTTTTCCCGGTAATCCGTATTTGAT (site CTACGCTCTAT),2.86
16,CTACTAACATGGACCGGTTTTCCCGGTAATCCGTATTTGTA (site CTACTAACTTA),2.03
17,CTACTAACATGGACCGGTTTTCCCGGTAATCCGTATTTGTA (site CTACTAACTTC),0.53
18,CTACTAACATGGACCGGTTTTCCCGGTAATCCGTATTTGTA (site CTACTAACTTG),1.51
19,CTACTAACATGGACCGGTTTTCCCGGTAATCCGTATTTGTA (site CTACTAACTTT),1.92
20,CTACTCACATGGACCGGTTTTCCCGGTAATCCGTATTTGGG (site CTACTCACTCC),0.286
21,CTACTCCCATGGACCGGTTTTCCCGGTAATCCGTATTTGGC (site CTACTCCCTGC),1.59
22,CTACTCTCATGGACCGGTTTTCCCGGTAATCCGTATTTGTA (site CTACTCTCTTA),3.26
23,CTACTCTCATGGACCGGTTTTCCCGGTAATCCGTATTTGTA (site CTCCTCTCTTA),1.19
24,CTACTCTCATGGACCGGTTTTCCCGGTAATCCGTATTTGTA (site CTGCTCTCTTA),1.32
25,CTACTCTCATGGACCGGTTTTCCCGGTAATCCGTATTTGTA (site CTTCTCTCTTA),1.42
26,CTACTGTCATGGACCGGTTTTCCCGGTAATCCGTATTTGTA (site CTACTGTCTTA),3.13
